Test results taken from PMC7031696 (Cell chemical biology, 2019).
Where two headings read alike, the source gives them in different places.

Experiments:
[1] = system: 3D7-MR4 trophozoite parasite-infected RBCs; assay: Metabolomic profiling (hydrophilic metabolite changes, UHPLC-MS); format: cell-based, Plasmodium falciparum
[2] = system: Plasmodium falciparum 3D7-A10 parasites; assay: Stage specificity assay (8-h exposure of synchronized stages, IC50^8h); format: cell-based; details: for IC50: Plasmodium falciparum
[3] = system: asynchronous 3D7-A10 parasite cultures; assay: Standard 72-h exposure asexual blood stage susceptibility assay (IC50^72h); format: cell-based, Plasmodium falciparum; details: Plasmodium falciparum, 3D7, 72 h, read-out: Overall (72hr assay) Mean IC50 (IC50^72h)

O=C(Nc1ccsc1C(=O)NC1CCCCC1)c1ccc(F)cc1 [MMV665939]
Log2(fold changes) 3-phosphoglycerate ([1]; metabolite 3-phosphoglycerate, log2 fold change): -0.3920 | Log2(fold changes) 4-Pyridoxic acid ([1]; metabolite 4-Pyridoxic acid, log2 fold change): -0.0874 | Log2(fold changes) 4-aminobutyrate ([1]; metabolite 4-aminobutyrate, log2 fold change): -0.3253 | Log2(fold changes) 4-phosphopantetheine ([1]; metabolite 4-phosphopantetheine, log2 fold change): 0.0000 | Log2(fold changes) 4-phosphopantothenate ([1]; metabolite 4-phosphopantothenate, log2 fold change): -0.8024 | Log2(fold changes) 5-aminopentanoic acid ([1]; metabolite 5-aminopentanoic acid, log2 fold change): 0.0000 | Log2(fold changes) 5-methyl-THF ([1]; metabolite 5-methyl-THF, log2 fold change): 0.0000 | Log2(fold changes) 5-phosphoribosyl-1-pyrophosphate ([1]; metabolite 5-phosphoribosyl-1-pyrophosphate, log2 fold change): 0.0000 | Log2(fold changes) 6-phospho-D-gluconate ([1]; metabolite 6-phospho-D-gluconate, log2 fold change): -0.2234 | Log2(fold change) HVDD ([1]; metabolite HVDD): -0.9968 | Log2(fold change) Hydroxyisocaproic acid ([1]; metabolite Hydroxyisocaproic acid): 0.0000 | Log2(fold change) IDP ([1]; metabolite IDP): 0.0000 | Log2(fold change) IMP ([1]; metabolite IMP): 0.0265 | Log2(fold change) Inositol ([1]; metabolite Inositol): 0.0000 | Log2(fold change) Isopentyl-PP ([1]; metabolite Isopentyl-PP): -0.3712 | Log2(fold change) L-arginino-succinate ([1]; metabolite L-arginino-succinate): -0.4465 | Log2(fold change) LD ([1]; metabolite LD): -0.2140 | Log2(fold change) Myristoyl/tetradecanoyl-CoA ([1]; metabolite Myristoyl/tetradecanoyl-CoA): 0.0000 | Log2(fold change) N-Acetyl-L-alanine ([1]; metabolite N-Acetyl-L-alanine): 1.1605 | Log2(fold change) N-acetyl-L-ornithine ([1]; metabolite N-acetyl-L-ornithine): -0.6303 | Log2(fold change) N-acetyl-glucosamine-1/6-phosphate ([1]; metabolite N-acetyl-glucosamine-1/6-phosphate): 0.0837 | Log2(fold change) N-acetyl-glutamate ([1]; metabolite N-acetyl-glutamate): -0.0309 | Log2(fold change) N-acetyl-glutamine ([1]; metabolite N-acetyl-glutamine): 0.1208 | Log2(fold change) N-carbamoyl-L-aspartate ([1]; metabolite N-carbamoyl-L-aspartate): 0.2551 | Log2(fold change) NAD+ ([1]; metabolite NAD+): -0.2042 | Log2(fold change) NADH ([1]; metabolite NADH): 0.1443 | Log2(fold change) NADP+ ([1]; metabolite NADP+): -0.0542 | Log2(fold change) NADPH ([1]; metabolite NADPH): 0.2171 | Log2(fold change) O-acetyl-L-serine ([1]; metabolite O-acetyl-L-serine): -0.2734 | Log2(fold change) Octoluse 8/1P ([1]; metabolite Octoluse 8/1P): -0.3337 | Log2(fold change) Octoluse Bisphosphate ([1]; metabolite Octoluse Bisphosphate): -0.2536 | Log2(fold change) PD ([1]; metabolite PD): -0.8727 | Log2(fold change) PE ([1]; metabolite PE): -0.7610 | Log2(fold change) PEE ([1]; metabolite PEE): -0.6388 | Log2(fold change) PEEK ([1]; metabolite PEEK): -0.8443 | Log2(fold change) PVNF ([1]; metabolite PVNF): -0.9198 | Log2(fold change) Pyroglutamic acid ([1]; metabolite Pyroglutamic acid): 0.4907 | Log2(fold change) Pyrophosphate ([1]; metabolite Pyrophosphate): 0.0000 | Log2(fold change) Ribose-5-phosphate ([1]; metabolite Ribose-5-phosphate): -0.6260 | Log2(fold change) S-adenosyl-L-homocysteine ([1]; metabolite S-adenosyl-L-homocysteine): 0.0358 | Log2(fold change) S-adenosyl-L-methioninamine ([1]; metabolite S-adenosyl-L-methioninamine): -2.1855 | Log2(fold change) S-adenosyl-L-methionine ([1]; metabolite S-adenosyl-L-methionine): 0.0000 | Log2(fold change) S-methyl-5'-thioadenosine ([1]; metabolite S-methyl-5'-thioadenosine): 0.4868 | Log2(fold change) SD ([1]; metabolite SD): -0.5679 | Log2(fold change) SDL ([1]; metabolite SDL): 0.0000 | Log2(fold change) SID ([1]; metabolite SID): -0.5481 | Log2(fold change) Sedoheptulose bisphosphate ([1]; metabolite Sedoheptulose bisphosphate): -0.1986 | Log2(fold change) Thiamine pyrophosphate ([1]; metabolite Thiamine pyrophosphate): -0.1355 | Log2(fold changes) UDP-D-glucose ([1]; metabolite UDP-D-glucose, log2 fold change): 0.0446 | Log2(fold changes) UDP-D-glucuronate ([1]; metabolite UDP-D-glucuronate, log2 fold change): -0.0014 | Log2(fold changes) UDP-N-acetyl-glucosamine ([1]; metabolite UDP-N-acetyl-glucosamine, log2 fold change): -0.0268 | Log2(fold changes) UDP ([1]; metabolite UDP, log2 fold change): -0.1898 | Log2(fold changes) UMP ([1]; metabolite UMP, log2 fold change): -0.0875 | Log2(fold changes) UTP ([1]; metabolite UTP, log2 fold change): 0.0000 | Log2(fold change) hydroxyphenylpyruvate ([1]; metabolite hydroxyphenylpyruvate): 0.0000 | Log2(fold change) hydroxyproline/Aminolevulinate ([1]; metabolite hydroxyproline/Aminolevulinate): -0.3323 | Log2(fold change) hypoxanthine ([1]; metabolite hypoxanthine): -0.1428 | Log2(fold change) indole ([1]; metabolite indole): 0.0000 | Log2(fold change) inosine ([1]; metabolite inosine): -0.4892 | Log2(fold change) isoleucine ([1]; metabolite isoleucine): 0.0000 | Log2(fold change) lactate ([1]; metabolite lactate): -0.3845 | Log2(fold change) leucine ([1]; metabolite leucine): 0.0000 | Log2(fold change) lysine ([1]; metabolite lysine): -0.8365 | Log2(fold change) malate ([1]; metabolite malate): -0.6264 | Log2(fold change) maleic acid ([1]; metabolite maleic acid): -0.6374 | Log2(fold change) methionine ([1]; metabolite methionine): -0.3116 | Log2(fold change) myo-inositol ([1]; metabolite myo-inositol): -0.4650 | Log2(fold change) nicotinamide mononucleotide ([1]; metabolite nicotinamide mononucleotide): -0.2358 | Log2(fold change) nicotinate ([1]; metabolite nicotinate): 0.0360 | Log2(fold change) ornithine ([1]; metabolite ornithine): -0.4311 | Log2(fold change) orotate ([1]; metabolite orotate): -0.0365 | Log2(fold change) orotidine-5'-phosphate ([1]; metabolite orotidine-5'-phosphate): -0.4342 | Log2(fold change) oxaloacetate ([1]; metabolite oxaloacetate): -0.0755 | Log2(fold change) p-aminobenzoate ([1]; metabolite p-aminobenzoate): 0.0000 | Log2(fold change) p-hydroxybenzoate ([1]; metabolite p-hydroxybenzoate): 0.0000 | Log2(fold change) pantothenate ([1]; metabolite pantothenate): -0.2337 | Log2(fold change) phenylalanine ([1]; metabolite phenylalanine): -0.4167 | Log2(fold change) phenylpyruvate ([1]; metabolite phenylpyruvate): 0.0000 | Log2(fold change) phosphoenolpyruvate ([1]; metabolite phosphoenolpyruvate): -0.3202 | Log2(fold change) prephenate ([1]; metabolite prephenate): -0.6614 | Log2(fold change) proline ([1]; metabolite proline): -0.2978 | Log2(fold change) pyridoxine ([1]; metabolite pyridoxine): -0.1996 | Log2(fold change) pyruvate ([1]; metabolite pyruvate): -0.7329 | Log2(fold change) riboflavin ([1]; metabolite riboflavin): 0.5336 | Log2(fold change) ribose ([1]; metabolite ribose): -0.3218 | Log2(fold change) ribose-phosphate ([1]; metabolite ribose-phosphate): -0.6165 | Log2(fold change) ribulose-5-phosphate ([1]; metabolite ribulose-5-phosphate): -0.5816 | Log2(fold change) serine ([1]; metabolite serine): -0.3504 | Log2(fold change) sn-glycerol-3-phosphate ([1]; metabolite sn-glycerol-3-phosphate): -0.3556 | Log2(fold change) succinate/Methylmalonic acid ([1]; metabolite succinate/Methylmalonic acid): -0.3870 | Log2(fold change) succinyl-CoA/methylmalonyl-CoA ([1]; metabolite succinyl-CoA/methylmalonyl-CoA): 0.0000 | Log2(fold change) taurine ([1]; metabolite taurine): -0.0411 | Log2(fold change) thiamine ([1]; metabolite thiamine): -0.2425 | Log2(fold change) threonine/homoserine ([1]; metabolite threonine/homoserine): -0.2222 | Log2(fold change) thymidine ([1]; metabolite thymidine): 0.0000 | Log2(fold changes) thymine ([1]; metabolite thymine, log2 fold change): 0.0000 | Log2(fold changes) trehalose-6-Phosphate ([1]; metabolite trehalose-6-Phosphate, log2 fold change): 0.0000 | Log2(fold changes) tryptophan ([1]; metabolite tryptophan, log2 fold change): -1.0924 | Log2(fold changes) tyrosine ([1]; metabolite tyrosine, log2 fold change): -0.3159 | Log2(fold changes) uridine ([1]; metabolite uridine, log2 fold change): 0.0000 | Ratio lowest IC50 8hr/IC50 72hr ([2]; 3D7-A10): 28.2 | IC50 ([2]; 3D7, read-out: Early rings Mean IC50 (IC50^8h), 8-h exposure 0–8 hr, 3D7-A10, survival at 60 h): 17 µM | IC50 ([2]; 3D7, read-out: Early trophozoites Mean IC50 (IC50^8h), 8-h exposure 16–24 hr, 3D7-A10, survival at 60 h): 13.5 µM | IC50 ([2]; 3D7, read-out: Late rings Mean IC50 (IC50^8h), 8-h exposure 8–16 hr, 3D7-A10, survival at 60 h): 22.9 µM | IC50 ([2]; 3D7, read-out: Late trophozoites Mean IC50 (IC50^8h), 8-h exposure 24–32 hr, 3D7-A10, survival at 60 h): 39 µM | IC50 ([2]; 3D7, read-out: Schizonts Mean IC50 (IC50^8h), 8-h exposure 32–40 hr, 3D7-A10, survival at 60 h): 54.4 µM | IC50^8h relative to IC50^72h value ([2]; most susceptible stages): > 28 fold | IC50 [3]: 0.478 µM
